Common to all, as to type: cell-based
Test [1] has as its system mesenteric arteries. In words: PE dose response of mesenteric arteries, conventional pipette cannulation setup. As to conditions: 3.0 μM PE applied to exterior surface, n=5. The text has this:
The device may be used to investigate responses of biological flow conduits. […] In this example, PE was applied to the exterior surface of the flow conduit, and the dose of PE was changed in a stepwise fashion.

Test [2] has as its system mesenteric arteries. The experiment in a line: PE dose response of mesenteric arteries measured using the device. Conditions: 3.0 μM PE applied to exterior surface, n=5. From the text: An example process of loading a flow conduit, in this case an artery, into this example embodiment of the device is now described. The device was initially flushed with a Bovine serum albumin (BSA) solution to prevent any unwanted adhesion of arteries to the walls of the main channel or culture chamber. […] As an alternative to the reversible fixation of the artery used here, an irreversible fixation method may be used, as discussed above.
Upon fixation (e.g., using a reversible fixation method), the lumen of the artery was perfused by operating a syringe pump, connected to an inlet of the culture channel, in the perfusion mode. By connecting the inlet and outlet of the culture channel to different hydrostatic pressure levels, a flow through the culture chamber was achieved while maintain a defined transmural pressure difference across the wall of the artery. A flow through the culture chamber was achieved while maintaining a defined transmural pressure difference (i.e., P1−P3 in FIG. 1) by superfusing the culture chamber with a second syringe pump that operates in the perfusion mode, connected at the inlet of the culture channel. The outlet of the culture channel was thus led to a reduced hydrostatic pressure level. […]

For a further test, the system named is mouse mesenteric vessel. The experiment in a line: Constriction of a mesenteric vessel in the device, single dose of PE. Conditions: 3.0 μM PE, representative tracing. The procedure:
In another example, the device was used to investigate a mesenteric vessel. […] In this example, a mouse mesenteric vessel was used, and a single does of PE was administered. The PE was applied to the exterior surface of the flow conduit. a) is a representative tracing of a mesenteric vessel's response to 3.0 μM PE, with a sustained constriction of 41.8%, measured in freshly isolated arteries that were immediately subjected to the stimulation with PE. b) is a representative tracing of a single mesenteric vessel kept in culture for 24 hours on the device prior to testing the response to PE, showing a sustained constriction of 41.4% to 3.0 μM PE.

The test system of a further test is mouse mesenteric artery. The experiment in a line: FURA-2 Ca2+ ratiometric measurements on a mesenteric artery fixed on the device. Conditions: stimulation with 3.0 μM PE; return to baseline following washout. From the text:
The smooth muscle cells in the artery are stained.

`CNC[C@H](O)c1cccc(O)c1` [PE, phenylephrine]: the results for the “maximal outer diameter constriction” value in the test with mesenteric arteries [1] and with mesenteric arteries [2] were 44.5+/−2.5% and 42.2+/−3.8%, respectively. Also, the sustained constriction in the test on mouse mesenteric vessel (freshly isolated arteries, immediately stimulated) worked out at 41.8%; in the test on mouse mesenteric vessel (vessel kept in culture for 24 hours on the device before testing), 41.4%. The “FURA-2 ratio (F340nm/F380nm)” value in the test with mouse mesenteric artery is listed as “increase in FURA-2 ratio”.

The values above are taken from patent US8790874B2, “Device for investigation of a flow conduit” (priority 2008, dated 2014).
